Measurements: publication PMC5893557, “Small tumor necrosis factor receptor biologics inhibit the tumor necrosis factor-p38 signalling axis and inflammation” (Nature Communications, 2018)
Like-named read-outs stand apart in the source and are kept apart here. Residues, ends and D or L forms follow the SMILES beside them. No end group written: not given here.

Legend:
human neutrophils = assay: TNF70–80-induced lucigenin-dependent chemiluminescence (superoxide) in neutrophils; assay type: cell-based
Method: (§1) Neutrophil superoxide production was measured by an indirect assay involving the reduction of the lucigenin, (9, 9′-bis N-methyl-acridinium nitrate) (Sigma-Aldrich, Castle Hill, NSW, Australia) and measuring the light output by lucigenin-dependant chemiluminescence. […] After incubation, 500 μl of lucigenin (250 μM, final) was added and the final volume was adjusted to 1 ml. The cells were placed in luminometer (Autolumat Plus Model LB 953, Berthold Technologies, Bundoora, VIC, Australia) and the resulting chemiluminescence (in relative light units, RLU) measured. The results are expressed as maximal/peak rate of chemiluminescence produced unless specified otherwise. CR3 expression on neutrophils was measured by flow cytometry using anti-CD11b antibodies. […] After treatment, 2 μl of PE-labelled mouse IgG2a isotype control (Clone X39) or PE-labelled monoclonal anti-CD11b antibody (Clone D12) (both from BD Biosciences, North Ryde, NSW, Australia) was added to neutrophils in 200 μl of Isoton II (BD Biosciences) supplemented with 0.1% (w/v) BSA. After 30 min the cells were washed, fixed with formaldehyde (0.1%) and analysed on a FACScan (BD Biosciences, North Ryde, NSW, Australia). Cytokine (IL-1β and IL-8) mRNA productions were measured by quantitative RT-PCR. Briefly, total RNA was extracted from 1 × 10^6 neutrophils using the TRIzol reagent (Life Technologies Australia Pty, Mulgrave, VIC, Australia) according to the manufacturer’s instructions. RNA was converted to cDNA using iScript cDNA synthesis kit (Bio-rad, Hercules, CA, USA).

[1] = target: TNF-induced neutrophil CL production (Homo sapiens, UniProt P01375); conditions: read-out: IC50, inhibition of TNF-induced CL production; TNF (1 ng/ml) pre-treated with peptide for 30 min, human neutrophils, lucigenin chemiluminescence
TNF-induced neutrophil CL production, sequence (P01375 whole entry): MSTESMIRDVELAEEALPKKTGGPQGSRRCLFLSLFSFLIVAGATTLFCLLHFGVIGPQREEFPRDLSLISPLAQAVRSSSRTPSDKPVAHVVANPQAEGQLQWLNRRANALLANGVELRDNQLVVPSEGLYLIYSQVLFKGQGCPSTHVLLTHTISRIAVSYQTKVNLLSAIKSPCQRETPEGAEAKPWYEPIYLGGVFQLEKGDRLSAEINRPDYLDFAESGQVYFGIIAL
TNF-induced neutrophil CL production, sequence (P19438 30-455 partner): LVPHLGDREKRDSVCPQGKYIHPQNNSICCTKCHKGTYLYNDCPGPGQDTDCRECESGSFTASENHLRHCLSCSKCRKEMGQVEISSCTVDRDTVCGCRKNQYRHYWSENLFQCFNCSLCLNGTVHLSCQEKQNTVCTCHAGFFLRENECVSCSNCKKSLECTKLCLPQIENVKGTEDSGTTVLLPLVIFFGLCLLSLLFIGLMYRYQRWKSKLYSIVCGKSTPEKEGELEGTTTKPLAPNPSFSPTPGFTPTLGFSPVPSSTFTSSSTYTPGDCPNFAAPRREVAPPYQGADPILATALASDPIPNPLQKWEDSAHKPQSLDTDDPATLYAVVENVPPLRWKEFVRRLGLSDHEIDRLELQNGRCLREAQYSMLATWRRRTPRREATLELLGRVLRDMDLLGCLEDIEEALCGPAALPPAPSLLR
Method: as §1

[2] = test system: TNF-rich medium-induced superoxide production in neutrophils; assay: TNF-rich medium (RM)-induced chemiluminescence in neutrophils; assay type: cell-based, human
Method: Neutrophil superoxide production was measured by an indirect assay involving the reduction of the lucigenin, (9, 9′-bis N-methyl-acridinium nitrate) (Sigma-Aldrich, Castle Hill, NSW, Australia) and measuring the light output by lucigenin-dependant chemiluminescence[37]. […] After incubation, 500 μl of lucigenin (250 μM, final) was added and the final volume was adjusted to 1 ml. The cells were placed in luminometer (Autolumat Plus Model LB 953, Berthold Technologies, Bundoora, VIC, Australia) and the resulting chemiluminescence (in relative light units, RLU) measured. The results are expressed as maximal/peak rate of chemiluminescence produced unless specified otherwise.

TNF = assay: Solid phase binding of TNF to coated TNFRI peptide; parameters: species or system human; conditions: peptide-coated plates, 50 U TNF, biotinylated anti-TNF antibody detection
Method: Depending on the experiment, microtitre plates were coated with 100 μl/well of either 3 μg/ml TNFRI198–211 in MilliQ water or TNFRI206–211 or the corresponding scrambled peptide in carbonate-bicarbonate buffer (pH 9.6) overnight at 4 °C and blocked with 1% BSA and 0.05% Tween-20 in PBS for 1 h at 4 °C. In the TNFRI198–211-coated plates, various concentrations of biotinylated TNF70–80 or control peptide were added to triplicate wells and incubated for 3 h at 4 °C. In the TNFRI206–211/scrambled peptide-coated plates, 50 U of TNF was added to triplicate wells, followed by washing with wash buffer (PBS/0.05% Tween-20) and then incubation with 50 μl of 1.5 μg/ml biotinylated monoclonal anti-TNF antibody (clone 2TNF-H33, ThermoScientific, Waltham, MA, USA). The wells from all plates were washed four times with wash buffer, then incubated with 100 μl/well of poly-horseradish peroxidase streptavidin conjugate (1/6000 dilution in 1% BSA and 0.05% Tween-20 in PBS) (ThermoScientific, Waltham, MA, USA) for 45 min at 4 °C. Wells were washed four times with wash buffer and bound enzyme detected by the addition of TMB substrate (Sigma-Aldrich, Castle Hill, NSW, Australia). Absorbance was measured using dual filter at 570/450 nm on a Dynatech MR700 Plate Reader (Guernsey, Channel Islands).

[3] = test system: CD11b expression in neutrophils; assay: TNF-induced CD11b (CR3) expression in neutrophils, flow cytometry; assay type: cell-based, human; conditions: TNF (5 ng/ml) pre-treated 20 min with 200 μM peptide unless otherwise specified
Method: as §1, with “Briefly, total RNA was extracted from 1 × 10^6 neutrophils using the TRIzol reagent (Life Technologies Australia Pty, Mulgrave, VIC, Australia) according to the manufacturer’s instructions. RNA was converted to cDNA using iScript cDNA synthesis kit (Bio-rad, Hercules, CA, USA).” left out

[4] = Method: TNF70–80 and its control ([…]) were synthesised by Auspep Pty Ltd, (Tullamarine, VIC, Australia) and Genscript Biotech (Piscataway, NJ, USA). […] The sequence from the natural TNF-α was modified by substitution of isoleucine for leucine at residue 79. […] Fresh dilutions of the peptide were prepared daily in HBSS or HBSS with 1% BSA. The His-tagged M4 (HM4) ∆HM4 (LKPGTT) was purchased from Auspep Pty Ltd (Tullamarine, VIC, Australia). […] Peptides were stored at −20 °C and solutions were made in HBSS or RPMI prior to use.
[5] = test system: p38 activity in 70Z/3 pre-B cells; assay: p38 activity in 70Z/3 pre-B cells, mock- or TNFRI (WT/mutant)-transfected; assay type: cell-based, mouse
Method: The study was approved by the CYWHS Human Ethics Committee (project number HREC 595/12/10). Neutrophils were prepared from peripheral blood of healthy donors, who had given informed consent, by a rapid single-step technique. Blood was layered on to Hypaque-Ficoll (Pharmacia Biotech., Uppsala, Sweden), d = 1.114, and centrifuged at 600 × g for 20–30 min. After centrifugation, the leukocytes resolved into two bands and the neutrophils were harvested from the second band. The preparations of neutrophils were routinely of >99% viability and >98% purity. These were either used as cells in suspension or as adhered neutrophils by adding the cells to plasma-coated plates as previously described. The 70Z/3 pre-B cell line, kindly provided by Dr. W. Langdon, University of Western Australia, Perth, Australia, are mouse pre-B lymphocytes which lack binding sites for human TNF and are non-responsive to the cytokine[18],[19]. The cells were maintained in RPMI 1640 medium with 4.5 g/L glucose, 2 mM L-glutamine, […] 2-mercaptoethanol and 10% FCS in an atmosphere of 95% air and 5% CO2. The monocytic cell line, MonoMac 6 was kindly provided by Dr. H.W.L. Ziegler-Heitbrock (Institute of Clinical Chemistry and Pathobiochemistry, Klinikum rechts der Isar, Technische Universitat, Munchen, Germany) and maintained in RPMI 1640 supplemented with 10% heat-inactivated foetal calf serum, 1 mM pyruvate, glutamine and antibiotics. A mouse fibroblastic fibrosarcoma cell line WEHI-164, clone 13 (from the ATCC) was obtained from Dr. Geeta Chauhdri (John Curtain School of Medical Research, Australian National University, Canberra, Australia). The cells were maintained in RPMI-1640 medium as above and the cells were detached with 0.25% trypsin EDTA. HEK 293T cells were maintained in DMEM, supplemented with 10% foetal calf serum. […]
(§2) p38 activity was determined, after immunoprecipitation, as described using myelin basic protein (MPB) as a substrate for the kinase in the presence of ^32P-ATP[35]. […]

macrophage = conditions: ability to stimulate nitric oxide production in macrophage; cited from earlier work
Description: The modification extended the serum half-life ...

p38 MAPK = assay: p38 activation in neutrophils treated with TNF70–80; assay type: cell-based, human; conditions: neutrophils incubated 15 min with peptide
Method: (§3) The study was approved by the CYWHS Human Ethics Committee (project number HREC 595/12/10). Neutrophils were prepared from peripheral blood of healthy donors, who had given informed consent, by a rapid single-step technique. Blood was layered on to Hypaque-Ficoll (Pharmacia Biotech., Uppsala, Sweden), d = 1.114, and centrifuged at 600 × g for 20–30 min. After centrifugation, the leukocytes resolved into two bands and the neutrophils were harvested from the second band. The preparations of neutrophils were routinely of >99% viability and >98% purity. These were either used as cells in suspension or as adhered neutrophils by adding the cells to plasma-coated plates as previously described. The 70Z/3 pre-B cell line, kindly provided by Dr. W. Langdon, University of Western Australia, Perth, Australia, are mouse pre-B lymphocytes which lack binding sites for human TNF and are non-responsive to the cytokine[18],[19]. The cells were maintained in RPMI 1640 medium with 4.5 g/L glucose, 2 mM L-glutamine, […] 2-mercaptoethanol and 10% FCS in an atmosphere of 95% air and 5% CO2. […]
as §2

[6] = test system: p38 activity in HEK 293T cells; assay: p38 activity in HEK 293T cells stably transfected with TRAF2, ∆TRAF2 or empty vector; assay type: cell-based; conditions: 10 μM
Method: as §3, §2

[7] = test system: Ross River virus (RRV)-infected mice; conditions: cited from earlier work
Description: Given that the TNFR peptide sequence covers the minimal region that is required for TNF to activate p38, it is likely the peptide alters the dynamics of the TNF–TNFR interaction—allowing not only TNF binding to TNFRI, but also the activation of the other signalling molecules that the receptor normally activates. This implies that other regions of TNFRI mediate the activation of the other signalli ...

C[S+]([O-])c1ccc(-c2nc(-c3ccncc3)c(-c3ccc(F)cc3)[nH]2)cc1 (centres unmarked) [SB203580, reference compound]
effect on TNF70–80-induced respiratory burst response (human neutrophils; neutrophils pre-incubated with inhibitor for 10 min before TNF70–80): inhibited

C[C@@H](O)[C@H](NC(=O)[C@@H](NC(=O)CN)[C@@H](C)O)C(=O)O [TNFRI209–211] (H-Gly-Thr-Thr-OH)
IC50 [1]: 123 µM | IC50 [2]: 146 µM

EDSGTT [TNFRI206–211]
IC50 [1]: 171 µM | IC50 ([2]; TNF-RM (conditioned medium of Staphylococcus aureus-stimulated mononuclear leukocytes, 1:10 in HBSS) treated with peptide, n = 3, read-out: IC50, inhibition of neutrophil response to TNF-rich medium): 216 µM

GEDTST [scrambled control of TNFRI206–211]
binding to TNF, solid phase assay (TNF): did not bind | effect on TNF-induced CD11b expression in neutrophils [3]: Lack of effect

LKPGTT [∆HM4]
effect on TNF70–80-stimulated CL production in human neutrophils (human neutrophils; four experiments): dose-dependent suppression

PSTHVLITHTI [TNF70–80]
serum half-life ([4]; after substitution of isoleucine for leucine at residue 79, no method or species printed): > 1.5 h | water solubility ([4]; after substitution of isoleucine for leucine at residue 79, relative to natural sequence): increased | p38 activity effect in M4 TNFRI mutant-transfected cells ([5]; 70Z/3 cells, M4 TNFRI mutant, 10 μM, p = 0.11, n = 3): retained, albeit appearing reduced | increase in p38 activity ([5]; WT TNFRI- and M1 TNFR1-transfected 70Z/3 cells, 10 μM, 5 min, three experiments): ~ 2.5 fold | p38 activity in 70Z/3 pre-B cells lacking TNFRs ([5]; untransfected (mock) cells): failed to stimulate the activity of p38 | concentration that equates to 1000 U/ml of TNF (macrophage): 5.0 µg/mL | p38 MAPK activation in neutrophils (p38 MAPK): activation of p38 MAPK | superoxide production, lucigenin-dependent chemiluminescence (human neutrophils; neutrophils, chemiluminescence over 45 min): stimulated the production of superoxide in a similar manner to TNF | p38 activity in cells transfected with dominant-negative TRAF2 (∆TRAF2) [6]: but not in those transfected with ∆TRAF2 | p38 activity in cells transfected with wild-type TRAF2 or an empty vector [6]: enhanced the activity of p38

QIENVKGTEDSGTT [TNFRI198–211]
IC50 [1]: 50 µM

etanercept
outcome in RRV-infected mice versus untreated RRV-infected mice [7]: decreased weight gain, higher viral titre in muscle, joints and blood, associated with a greater degree of tissue damage and inflammatory cell recruitment
